From PubChem BioAssay (NCI)
“And” between values parts separate entries of the source, which are not always exact repeats. Equal entries are not always repeated.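 48-hour exposure; five concentrations; linearly interpolated endpoints. GI50 marks 50% less growth. Definition used: TGI = concentration required for complete inhibition of growth.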

How the values were obtained:
Assay in all cases: DTP human tumour cell line panel, 48 h
786-0 renal = test system: 786-0 renal
ACHN renal = test system: ACHN renal
NCI-H226 lung = test system: NCI-H226 lung
NCI-H23 lung = test system: NCI-H23 lung
OVCAR-3 ovarian = test system: OVCAR-3 ovarian
SK-MEL-28 melanoma = test system: SK-MEL-28 melanoma
SK-OV-3 ovarian = test system: SK-OV-3 ovarian
SNB-75 CNS = test system: SNB-75 CNS
UACC-62 melanoma = test system: UACC-62 melanoma
UO-31 renal = test system: UO-31 renal

Row | SMILES | GI50 (786-0 renal) [µM] | TGI (786-0 renal) [µM] | GI50 (ACHN renal) | TGI (ACHN renal) [µM] | GI50 (NCI-H226 lung) [µM] | TGI (NCI-H226 lung) [µM] | GI50 (NCI-H23 lung) [µM] | TGI (NCI-H23 lung) [µM] | GI50 (OVCAR-3 ovarian) | TGI (OVCAR-3 ovarian) [µM] | GI50 (SK-MEL-28 melanoma) [µM] | TGI (SK-MEL-28 melanoma) [µM] | GI50 (SK-OV-3 ovarian) [µM] | TGI (SK-OV-3 ovarian) [µM] | GI50 (SNB-75 CNS) [µM] | TGI (SNB-75 CNS) [µM] | GI50 (UACC-62 melanoma) | TGI (UACC-62 melanoma) [µM] | GI50 (UO-31 renal) [µM] | TGI (UO-31 renal) [µM]
1 | O=C1C2=C(C(=O)c3c(O)ccc(O)c31)N(c1ccc(N3CCOCC3)nc1)Cc1ccccc1O2 | 0.206 | 0.45 | 0.0534 µM | 0.237 | 1.91 | 7.81 | 0.421 | 1.88 | 0.227 µM | 0.651 | 0.275 | 0.785 | 2.89 | 11.8 | 1.24 | 7.27 | 0.369 µM | 1.56 | 0.131 | 0.429
2 | COC(=O)CCC(NC(=S)N/N=C(\C)c1ccccn1)C(=O)OC (centres undefined) | – | > 100 | – | > 100 | – | > 100 | – | > 100 | – | > 100 | – | > 100 | – | > 100 | – | > 100 | – | > 100 | – | > 100
3 | O=C(CCc1nnc2s/c(=C\c3ccccc3)c(=O)n12)Nc1cc(Cl)ccc1Cl | – | > 100 | – | > 100 | – | > 100 | – | > 100 | – | > 100 | – | > 100 | – | > 100 | – | > 100 | – | > 100 | – | > 100
4 | COc1cc2c(cc1OCCCCNC(=O)c1cc3ccccc3[nH]1)N=CC1CCCN1C2=O (centres undefined) | 33.5 | > 100 | 22.6 µM | > 100 | 30.7 | > 100 | 28.4 | > 100 | 8.59 µM | > 100 | 37.5 | > 100 | 29.9 | 83.6 | 33.9 | > 100 | 15.8 µM | 40.7 | 7.16 | 74.1
5 | Nc1nc(N)c2cc(CNc3ccc(Cl)c(Cl)c3)ccc2n1 | 0.391 | 1.73 | 0.495 µM | 1.71 | 1.58 | 3.21 | 0.71 | 2.11 | 1.1 µM | 2.29 | 1.51 | 2.84 | 1.28 | 2.53 | 1.14 | 2.36 | 0.468 µM | 1.86 | 0.865 | 2.17
6 | N/C(=N\O)c1ncc(-c2ccc(C(F)(F)F)cc2)c(NC2CCCCCC2)n1 | 3.54 | 13.1 | 4.49 µM and 2.23 µM | 13.3 | 4.24 | 26.8 | 3.76 | 16.3 | 8.8 µM and 3.74 µM | 15.2 | 5.38 | 19 | 7.05 | 20.8 | 5.11 | 20.6 | 9.12 µM and 2.65 µM | 10.5 | – | 10.9
7 | C/C(=N\NC(=O)CC(=O)Nc1ccc(C)cc1)c1cc2ccccc2oc1=O | – | > 100 | – | > 100 | – | > 100 | – | > 100 | – | > 100 | – | > 100 | – | > 100 | – | 76.6 | – | > 100 | – | > 100
8 | CC(C)=CC/C=C(/C)[C@H]1CC[C@]2(C)[C@@H]1CC[C@@H]1[C@@]3(C)CCC(=O)NC(C)(C)[C@@H]3CC[C@]12C | 19.8 | 37.5 | 20 µM | 43 | 19.1 | 43.1 | 18.3 | 45.7 | 18.3 µM | 34.1 | 16.7 | 31.6 | 47.7 | > 100 | 20.9 | 55.1 | 16.9 µM | 43.5 | 15.6 | 29.2
9 | COc1ccc(/C=C/c2cc(OC)c(O[Si](C)(C)C(C)(C)C)c(OC)c2)cc1 | – | > 100 | – | > 100 | – | > 100 | – | > 100 | – | > 100 | – | 86.6 | – | > 100 | – | > 100 | – | > 100 | – | > 100
10 | Cc1c2ccccc2c(C)c2c3c(ccc12)C(=O)C=CC3=O | – | > 62.2 | – | 33.3 | – | > 100 | – | > 85.4 | – | 38.3 | – | > 57.1 | – | > 100 | – | > 100 | – | > 100 | – | 41.7
11 | COc1ccc2c(c1)C(=O)c1c-2n(CCCN=[N+]=[N-])c(=O)c2ccccc12 | 27.9 | > 100 | 28.7 µM | > 100 | > 100 | > 100 | 50.4 | > 100 | 52.4 µM | > 100 | > 100 | > 100 | 20.3 | 69.5 | 18.8 | 65.2 | 75.5 µM | > 100 | 43.4 | > 100
12 | Clc1ccc(-c2nc3c(-c4ccc(Cl)cc4)nc(-c4ccccc4)cn3c2-c2ccc(Cl)cc2)cc1 | 46.5 | > 50 | > 50 µM | > 50 | > 50 | > 50 | > 50 | > 50 | > 50 µM | > 50 | > 50 | > 50 | 24.2 | > 50 | 6.56 | 25.7 | 26 µM | > 50 | > 50 | > 50
